Consider 26 compounds from patent publication US20230399341A1, “7-PHENYL SUBSTITUTED 2-AMINOQUINAZOLINE INHIBITORS OF HPK1” (MERCK SHARP & DOHME LLC, priority 2020, published 2023).

Structures are written as SMILES.

The test deals with T1, Human HPK1, catalytic domain (Homo sapiens, UniProt Q92918).
T1 sequence (Q92918 1-346): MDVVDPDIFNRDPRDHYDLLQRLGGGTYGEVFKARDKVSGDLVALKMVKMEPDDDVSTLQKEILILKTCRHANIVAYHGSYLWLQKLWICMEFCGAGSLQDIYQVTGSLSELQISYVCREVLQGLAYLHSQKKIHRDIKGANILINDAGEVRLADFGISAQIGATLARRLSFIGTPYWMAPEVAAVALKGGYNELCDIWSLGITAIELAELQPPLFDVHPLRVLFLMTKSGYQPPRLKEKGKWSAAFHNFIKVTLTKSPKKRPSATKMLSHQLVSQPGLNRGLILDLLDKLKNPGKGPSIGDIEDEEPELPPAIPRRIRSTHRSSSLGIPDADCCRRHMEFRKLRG
The experiment in a line: HPK1-SLP76 TR-FRET Assay. The conditions noted are these: 75 pM HPK1, ATP 10 uM, SLP76 10 nM, 30 min pre-incubation, 60 min reaction. The test is classed as biochemical. For orientation: TR-FRET usually uses a lanthanide donor and a delayed reading to cut background.
As to `Cc1c(-c2cc3nc(Nc4ccc(CS(=O)(=O)CC(F)(F)F)cc4)ncc3c(N)c2F)cnc2c1NCCO2` [Compound 2-149, 6-fluoro-7-(8-methyl-2,3-dihydro-1H-pyrido[2,3-b][1,4]oxazin-7-yl)-N~2~- {4-[(2,2,2-trifluoroethanesulfonyl)methyl]phenyl}quinazoline-2,5-diamine], the IC50 (in general, the concentration that inhibits the measured activity by half) amounted to 0.194 nM.

In turn, `Cc1c(-c2cc3nc(Nc4ccc5c(c4)CN(C)CC5(C)C)ncc3c(N)c2F)cnc2c1NCCO2` [Compound 2-150, 6-fluoro-7-(8-methyl-2,3-dihydro-1H-pyrido[2,3-b][1,4]oxazin-7-yl)-N~2~- (2,4,4-trimethyl-1,2,3,4-tetrahydroisoquinolin-7-yl)quinazoline-2,5-diamine] showed an IC50 of 0.0614 nM.

`CN1Cc2cc(Nc3ncc4c(N)c(F)c(-c5cnc6c(c5)NCCO6)cc4n3)ccc2C2(CC2)C1` [Compound 2-151, 7-(2,3-dihydro-1H-pyrido[2,3-b][1,4]oxazin-7-yl)-6-fluoro-N~2~-(2′-methyl-2′,3′-dihydro-1′H-spiro[cyclopropane-1,4′-isoquinolin]-7′-yl)quinazoline-2,5-diamine] displayed an IC50 of 0.267 nM. This IC50 is about 4.3-fold higher than that of the compound before.

`CN1Cc2cc(Nc3ncc4c(N)c(F)c(-c5cnc6c(c5Cl)NCCO6)cc4n3)ccc2C2(CC2)C1` [Compound 2-152, 7-(8-chloro-2,3-dihydro-1H-pyrido[2,3-b][1,4]oxazin-7-yl)-6-fluoro-N~2~-(2′-methyl-2′,3′-dihydro-1′H-spiro[cyclopropane-1,4′-isoquinolin]-7′-yl)quinazoline-2,5-diamine] returned a half-maximal inhibitory concentration (IC50) of 0.0714 nM.

As to `Cc1c(N)cncc1-c1cc2nc(Nc3ccc4c(c3)CN(C)CC43CC3)ncc2c(N)c1F` [Compound 2-153, 7-(5-amino-4-methylpyridin-3-yl)-6-fluoro-N~2~-(2′-methyl-2′,3′-dihydro-1′H-spiro[cyclopropane-1,4′-isoquinolin]-7′-yl)quinazoline-2,5-diamine], it took 0.0471 nM to reach half-maximal inhibition (IC50). This IC50 lies about 1.5-fold lower than the previous one. Under `Cc1c(-c2cc3nc(Nc4ccc5c(c4)CN(C)CC5(F)F)ncc3c(N)c2F)cnc2c1NCCO2` [Compound 2-154, N~2~-(4,4-difluoro-2-methyl-1,2,3,4-tetrahydroisoquinolin-7-yl)-6-fluoro-7-(8-methyl-2,3-dihydro-1H-pyrido[2,3-b][1,4]oxazin-7-yl)quinazoline-2,5-diamine] stands 0.515 nM. Consider `Cc1c(-c2cc3nc(Nc4ccc(CS(C)(=O)=O)cc4F)ncc3c(N)c2F)cnc2c1NCCO2` [Compound 2-155, 6-fluoro-N~2~-{2-fluoro-4-[(methylsulfonyl)methyl]phenyl}-7-(8-methyl-2,3-dihydro-1H-pyrido[2,3-b][1,4]oxazin-7-yl)quinazoline-2,5-diamine], for which the IC50 turned out to be 0.0647 nM.

`Cc1c(-c2cc3nc(Nc4ccc(CS(=O)(=O)C(C)C)cc4)ncc3c(N)c2F)cnc2c1NCCO2` [Compound 2-157, 6-fluoro-7-(8-methyl-2,3-dihydro-1H-pyrido[2,3-b][1,4]oxazin-7-yl)-N~2~- (4-{[(propan-2-yl)sulfonyl]methyl}phenyl) quinazoline-2,5-diamine] had an IC50 of 0.0689 nM.

The compound `Cc1c(-c2cc3nc(Nc4ccc5c(c4)CCN(C)C5)ncc3c(N)c2F)cnc2c1NCCO2` [Compound 2-158, 6-fluoro-7-(8-methyl-2,3-dihydro-1H-pyrido[2,3-b][1,4]oxazin-7-yl)-N~2~- (2-methyl-1,2,3,4-tetrahydroisoquinolin-6-yl)quinazoline-2,5-diamine] had an IC50 of 0.0251 nM. Under `Cc1c(-c2c(F)c(N)c3cnc(Nc4ccc(N5CCOC5=O)cc4)nc3c2Cl)cnc2c1NCCO2` [Compound 2-159] stands 47 nM; under `CN1CCc2ccc(Nc3ncc4c(N)c(F)c(-c5cnc6c(c5Cl)NCCO6)cc4n3)cc2C1` [Compound 2-160, 7-(8-chloro-2,3-dihydro-1H-pyrido[2,3-b][1,4]oxazin-7-yl)-6-fluoro-N~2~-(2-methyl-1,2,3,4-tetrahydroisoquinolin-7-yl)quinazoline-2,5-diamine], 0.0326 nM; under `Cc1c(-c2c(F)c(N)c3cnc(Nc4ccc(CS(C)(=O)=O)cc4)nc3c2Cl)cnc2c1NCC(C)(C)O2` [Compound 2-161, (+ and −)-8-chloro-6-fluoro-N~2~-{4-[(methylsulfonyl)methyl]phenyl}-7-(3,3,8-trimethyl-2,3-dihydro-1H-pyrido[2,3-b][1,4]oxazin-7-yl)quinazoline-2,5-diamine], 0.252 nM. Compound `Cc1c(-c2cc3nc(Nc4ccc5c(c4)CN(C)CC5)ncc3c(N)c2F)cnc2nc[nH]c12` [Compound 2-162, 6-fluoro-7-(7-methyl-1H-imidazo[4,5-b]pyridin-6-yl)-N~2~-(2-methyl-1,2,3,4-tetrahydroisoquinolin-7-yl)quinazoline-2,5-diamine] yielded a 50% inhibitory concentration (IC50) of 0.126 nM.

Consider `Cc1c(-c2c(F)c(N)c3cnc(Nc4ccc(CC(C)(C)O)cc4)nc3c2Cl)cnc2c1NCCO2` [Compound 2-164, 1-(4-{[5-amino-8-chloro-6-fluoro-7-(8-methyl-2,3-dihydro-1H-pyrido[2,3-b][1,4]oxazin-7-yl)quinazolin-2-yl]amino}phenyl)-2-methylpropan-2-ol], for which the IC50 was 0.487 nM.

`Cc1c(-c2cc3nc(Nc4ccc(CS(C)(=O)=O)cc4)ncc3c(N)c2F)cnc2c1NCC(C)(C)O2` [Compound 2-165, 6-fluoro-N~2~-{4-[(methylsulfonyl)methyl]phenyl}-7-(3,3,8-trimethyl-2,3-dihydro-1H-pyrido[2,3-b][1,4]oxazin-7-yl)quinazoline-2,5-diamine] showed an IC50 of 0.103 nM. Compound `Cc1c(-c2cc3nc(Nc4ccc5c(c4)CN(C)CC5)ncc3c(N)c2F)cnc2c1NCC(C)(C)O2` [Compound 2-166, 6-fluoro-N~2~-(2-methyl-1,2,3,4-tetrahydroisoquinolin-7-yl)-7-(3,3,8-trimethyl-2,3-dihydro-1H-pyrido[2,3-b][1,4]oxazin-7-yl)quinazoline-2,5-diamine] displayed an IC50 of 0.0589 nM.

With `Cc1c(-c2c(F)c(N)c3cnc(Nc4ccc(CC(C)(C)O)cc4)nc3c2Cl)cnc2c1NCCO2` [Compound 2-167, 1-(4-{[5-amino-8-chloro-6-fluoro-7-(8-methyl-2,3-dihydro-1H-pyrido[2,3-b][1,4]oxazin-7-yl)quinazolin-2-yl]amino}phenyl)-2-methylpropan-2-ol], half-maximal inhibition (IC50) required 70.5 nM. Against the preceding compound, the IC50 is about 1200-fold higher. The figure for `COc1cc(CS(=O)(=O)C(C)C)ccc1Nc1ncc2c(N)c(F)c(-c3cnc4c(c3C)NCCO4)cc2n1` [Compound 2-168, 6-fluoro-N~2~-(2-methoxy-4-{[(propan-2-yl)sulfonyl]methyl}phenyl)-7-(8-methyl-2,3-dihydro-1H-pyrido[2,3-b][1,4]oxazin-7-yl)quinazoline-2,5-diamine] is 0.104 nM; for `COc1cc2c(cc1Nc1ncc3c(N)c(F)c(-c4cnc5c(c4C)NCCO5)c(Cl)c3n1)CN(C)CC21CC1` [Compound 2-169, 8-chloro-6-fluoro-N~2~- (6′-methoxy-2′-methyl-2′,3′-dihydro-1′H-spiro[cyclopropane-1,4′-isoquinolin]-7′-yl)-7-(8-methyl-2,3-dihydro-1H-pyrido[2,3-b][1,4]oxazin-7-yl)quinazoline-2,5-diamine] it is 4.97 nM. Under `Cc1c(-c2cc3nc(Nc4ccc([S+](C)[O-])cc4)ncc3c(N)c2F)cnc2c1NCCO2` (centres unmarked) [Compound 2-170, 6-fluoro-7-(8-methyl-2,3-dihydro-1H-pyrido[2,3-b][1,4]oxazin-7-yl)-N~2~- [4-(methylsulfinyl)phenyl] quinazoline-2,5-diamine] stands 0.0392 nM. Under `Cc1c(-c2cc3nc(Nc4cc5c(cc4F)CCN(C(C)C)C5)ncc3c(N)c2F)cnc2c1NCCO2` [Compound 2-171, 6-fluoro-N~2~-[6-fluoro-2-(propan-2-yl)-1,2,3,4-tetrahydroisoquinolin-7-yl]-7-(8-methyl-2,3-dihydro-1H-pyrido[2,3-b][1,4]oxazin-7-yl)quinazoline-2,5-diamine] stands 0.0507 nM; under `Cc1ccc(F)cc1-c1cc2nc(Nc3ccc(CS(C)(=O)=O)cc3)ncc2c(N)c1F` [Compound 2-172, 6-fluoro-7-(5-fluoro-2-methylphenyl)-N~2~-{4-[(methylsulfonyl)methyl]phenyl}quinazoline-2,5-diamine], 24.6 nM; under `CCc1ccc(Nc2ncc3c(N)c(F)c(-c4cnc5c(c4C)NCCO5)cc3n2)cn1` [Compound 2-173, N~2~-(6-ethylpyridin-3-yl)-6-fluoro-7-(8-methyl-2,3-dihydro-1H-pyrido[2,3-b][1,4]oxazin-7-yl)quinazoline-2,5-diamine], 0.128 nM. In the case of `Cc1ccc(F)cc1-c1cc2nc(Nc3ccc4c(c3)CN(C)CC4)ncc2c(N)c1F` [Compound 2-174, 6-fluoro-7-(5-fluoro-2-methylphenyl)-N~2~-(2-methyl-1,2,3,4-tetrahydroisoquinolin-7-yl)quinazoline-2,5-diamine], the IC50 was 11.4 nM. Under `Cc1c(-c2cc3nc(Nc4cnc5c(c4)CN(C(C)C)CC5)ncc3c(N)c2F)cnc2c1NCCO2` [Compound 2-175, 6-fluoro-7-(8-methyl-2,3-dihydro-1H-pyrido[2,3-b][1,4]oxazin-7-yl)-N~2~- [6-(propan-2-yl)-5,6,7,8-tetrahydro-1,6-naphthyridin-3-yl]quinazoline-2,5-diamine] stands 0.0298 nM.

Compound `COc1cc(C2CC2)ccc1Nc1ncc2c(N)c(F)c(-c3cnc4c(c3C)NCCO4)cc2n1` [Compound 2-176, N~2~-(4-cyclopropyl-2-methoxyphenyl)-6-fluoro-7-(8-methyl-2,3-dihydro-1H-pyrido[2,3-b][1,4]oxazin-7-yl)quinazoline-2,5-diamine] yielded an IC50 of 17.2 nM.
